Measured values: patent US5405839A, “Vitamin B12 derivative, preparation process thereof, and use thereof” (Teijin Limited, priority 1989, dated 1995)

Experiments:
[1] = system: mouse leukemia L1210 cells; assay: Viability of cultured L1210 cells on day 9 by Trypan blue staining; assay type: cell-based; details: day 9, MTX 200 nM only; 12960 min
Description: The mouse leukemia L1210 cells employed for this experiment were grown and maintained intraperitoneally in DBA mice, taken out together with ascites and aseptically cultured as adapted for RPMI-1640 medium for animal cell culture supplemented with fetal bovine serum (5 v/v %) and ethanolamine (1.2 mg/liter), but devoid of vitamin B12 (cyanocobalamin). Also, 100,000 units of penicillin and 100 mg of streptomycin were added as the antimicrobial agent, per liter of this medium. The L1210 cells grown and adapted in vitro were further adapted to the above-mentioned medium containing 7.0 g/liter of bovine serum albumin in place of the fetal bovine serum, following the method of Fujii et al. (J. Biol. Chem., vol. 256, p. 10329-10334, 1981), and then used for experiment.
To examine the L1210 growth inhibitory activities of the vitamin B12 derivatives synthesized in Examples 2 and 5, first L1210 cells adapted to albumin were inoculated at a density of 5×10^4 cells/ml into the same medium containing folic acid at 10 μM concentration, and a preculture was carried out under a humidified atmosphere of CO2 /air (5%/95%) at 37° C. for 3 days. The cells grown were centrifuged, then washed twice with the same medium containing no folic acid, to prepare an inoculum cell suspension of about 5×10^6 cells/mi. […]

diol dehydrase [2] = target: T1, diol dehydrase (Klebsiella oxytoca, UniProt Q59470+Q59471+Q59472); assay: Inhibition constant (Ki) of vitamin B12 derivative against vitamin B12 coenzyme, Lineweaver-Burk plot; assay type: biochemical; details: against varied adenosylcobalamin
T1 construct: (alpha beta gamma)2 hexamer
T1 sequence (Q59470 1-554): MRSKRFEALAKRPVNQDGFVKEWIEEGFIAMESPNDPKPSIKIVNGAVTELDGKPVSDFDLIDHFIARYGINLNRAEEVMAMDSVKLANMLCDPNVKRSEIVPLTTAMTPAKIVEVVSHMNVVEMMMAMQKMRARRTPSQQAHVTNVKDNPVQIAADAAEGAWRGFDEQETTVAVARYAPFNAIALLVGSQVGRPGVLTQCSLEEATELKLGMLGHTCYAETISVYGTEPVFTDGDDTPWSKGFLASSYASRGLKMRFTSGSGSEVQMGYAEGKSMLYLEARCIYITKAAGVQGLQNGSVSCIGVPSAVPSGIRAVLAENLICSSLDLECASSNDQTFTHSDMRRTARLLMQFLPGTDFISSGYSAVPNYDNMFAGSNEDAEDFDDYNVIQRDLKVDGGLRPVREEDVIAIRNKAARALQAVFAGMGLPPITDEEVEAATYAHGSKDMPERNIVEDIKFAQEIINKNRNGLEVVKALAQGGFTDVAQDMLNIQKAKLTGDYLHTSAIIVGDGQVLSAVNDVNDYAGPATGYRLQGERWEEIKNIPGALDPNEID
T1 sequence (Q59471 1-224): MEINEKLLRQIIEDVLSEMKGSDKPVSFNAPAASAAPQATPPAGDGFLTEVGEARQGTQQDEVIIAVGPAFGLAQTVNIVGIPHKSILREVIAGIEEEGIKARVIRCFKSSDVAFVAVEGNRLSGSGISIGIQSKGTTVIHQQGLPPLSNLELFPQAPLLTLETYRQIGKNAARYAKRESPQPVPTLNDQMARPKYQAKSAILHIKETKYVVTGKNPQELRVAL
T1 sequence (Q59472 1-173): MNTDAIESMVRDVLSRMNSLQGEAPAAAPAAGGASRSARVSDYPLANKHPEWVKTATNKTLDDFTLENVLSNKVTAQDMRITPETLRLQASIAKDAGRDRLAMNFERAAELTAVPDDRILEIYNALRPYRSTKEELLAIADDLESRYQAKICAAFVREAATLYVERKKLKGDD
Description: (§1) As the enzyme, diol dehydrase was employed. […] Diol dehydrase was highly purified from Klebsiella pneumoniae ATCC 8724 according to the method of Poznanskaya (Arch. Biochem. Biophys., vol. 194, p. 379-386, 1979) and adjusted to a solution of 0.3 Unit/ml with 0.05 M potassium phosphate buffer (pH 8.0). As the substrate of this enzyme, a 1 M aqueous 1,2-propanediol solution was employed.
(§2) In an ice-water bath, 0.1 ml of the substrate solution, 0.1 ml of 0.5 M aqueous potassium chloride solution, 0.1 ml of diol dehydrase solution, and 0.6 ml of 0.05 M potassium phosphate buffer (pH 8.0) were mixed, and to the mixture were added, in the dark, 0.1 ml of 0.2 mM vitamin B12 coenzyme (adenosylcobalamin), vitamin B12 (cyanocobalamin) or each vitamin B12 derivative prepared in Examples 1 to 10. After the mixture was incubated in the dark at 37° C. for 10 minutes, 1 ml of 0.1M potassium citrate buffer (pH 3.6) was added to stop the enzyme reaction, and then 0.5 ml of 0.1% aqueous 3-methyl-2-benzothianolinonehydrazone was added, followed by a continuation of the incubation at 37° C. for 15 minutes. To the mixture was added 1 ml of water, and the absorbance at 305 nm was measured by a Shimazu Double-beam Spectrophotometer Model UV-140-02 Model and the coenzyme activity (kcat) was calculated.
Namely, in the method 1) in Example 11, by adding adequately varied concentration of the vitamin B12 coenzyme (adenosylcobalamin) to a fixed concentration of each vitamin B12 derivative, the enzyme activity was respectively assayed and the inhibition constant (Ki) was determined by the Lineweaver-Burk plot. The inhibitory activity is stronger when the Ki is smaller.

diol dehydrase [3] = target: T1, diol dehydrase; assay: Assay of coenzyme activity (kcat) with diol dehydrase; assay type: biochemical, Klebsiella pneumoniae ATCC 8724; details: for Kcat (coenzyme activity): diol dehydrase, 1,2-propanediol substrate, 37° C., pH 8.0; method 1) or 2); for Kcat, activity relative to the vitamin B12 coenzyme (adenosylcobalamin): relative to adenosylcobalamin = 100; for coenzyme activity (in words): diol dehydrase
Description: The coenzyme activities of vitamin B12 derivatives prepared in Examples 1 to 10 were assayed according to the two methods shown below.
1) Assay of coenzyme activity by using 3-methyl-2-benzothiazolinonehydrazone
The assay was carried out according to the method of Toraya et al. (J. Biol. Chem., vol. 252, p. 963-970, 1977).
as §1, §2
2) Assay of coenzyme activity using alcohol dehydrogenase and reduced nicotinamide adenine dinucleotide
The assay was carried out according to the method of Toraya et al. (Biochemistry, vol. 18, p. 417-426, 1979).
The diol dehydrase employed was diluted with 0.05 M potassium phosphate buffer (pH 8.0) to 0.15 Unit/ml, and 1M aqueous propanediol was used as the substrate solution. By using a 0.05 M potassium phosphate buffer (pH 8.0), 0.5 mg/ml of alcohol dehydrogenase and a 2 mM reduced nicotinamide adenine dinucleotide were prepared. To a mixture of 0.1 ml of the substrate solution, 0.1 ml of the alcohol dehydrogenase solution, 0.1 ml of the reduced nicotinamide adenine dinucleotide solution, and 0.5 ml of the 0.05 M potassium phosphate buffer (pH 8.0) was added 0.1 ml of the diol dehydrase solution. After the mixture was incubated at 37° C. for 5 minutes, there were added, in the dark, 0.1 ml of 0.2 mM vitamin B12 coenzyme (adenosylcobalamin), vitamin B12 (cyanocobalamin) or each vitamin B12 derivative prepared in Examples 1 to 10, and the coenzyme activity (kcat) was calculated by continuously monitoring the decrease in absorbance at 340 nm, by a Union Spectrophotometer SM-401.
The coenzyme activity is higher when the kcat is larger. The activity relative to the vitamin B12 coenzyme (adenosylcobalamin) is also shown in % in Table 1.

diol dehydrase [4] = target: T1, diol dehydrase; assay: Michaelis constant (Km) of vitamin B12 derivative, Lineweaver-Burk plot; assay type: biochemical, Klebsiella pneumoniae ATCC 8724
Description: as §1, §2
Namely, in the method 1) in Example 11, the respective enzyme activities were assayed by suitably varying the concentration of the vitamin B12 derivative, and Michaelis constant (km) was determined by the Lineweaver Burk plot. The affinity (binding ability) for the enzyme is higher when the Km is smaller.

Compound	cells found dead (Trypan blue) [1] [%]	Ki (diol dehydrase [2]) [µM]	Kcat (coenzyme activity) (diol dehydrase [3]) [s⁻¹]	Kcat, activity relative to the vitamin B12 coenzyme (adenosylcobalamin) (diol dehydrase [3]) [%]	Km (diol dehydrase [4]) [µM]	coenzyme activity (in words) (diol dehydrase [3])
CN(Cc1cnc2nc(N)nc(N)c2n1)c1ccc(C(=O)N[C@@H](CCC(=O)O)C(=O)O)cc1 [MTX, methotrexate]	20					
3-imidazolylpropyladenosylcobinamide phosphoric acid [Example 10]		1	3	0.9	1.1	
6-(5,6-dimethylbenzimidazolyl)hexyladenosylcobinamide phosphoric acid [Example 9]		38				no coenzyme activity
4-(5,6-dimethylbenzimidazolyl)butyladenosylcobinamide phosphoric acid [Example 8]			167	50	11.2	
C/C1=C2/[N-][C@H]([C@H](CC(N)=O)[C@@]2(C)CCC(=O)NC[C@@H](C)OP(=O)([O-])O[C@H]2[C@@H](O)[C@@H](n3cnc4cc(C)c(C)cc43)O[C@@H]2CO)[C@]2(C)N=C(/C(C)=C3N=C(/C=C4N=C1[C@@H](CCC(N)=O)C\4(C)C)[C@@H](CCC(N)=O)[C@]\3(C)CC(N)=O)[C@@H](CCC(N)=O)[C@]2(C)CC(N)=O.[CH2-][C@H]1O[C@@H](n2cnc3c(N)ncnc32)[C@H](O)[C@@H]1O.[Co] [Vitamin B12 coenzyme, adenosylcobalamin, reference compound]			337	100	0.8	
2-(5,6-dimethylbenzimidazolyl)ethyladenosylcobinamide phosphoric acid [Example 6]		52				no coenzyme activity
3-(5,6-dimethylbenzimidazolyl)propyladenosylcobinamide phosphoric acid [Example 7]			199	59	0.82	
